Assay [1] has as its system substance P induced plasma extravasation. Description: Antagonism of substance P induced plasma extravasation in guinea-pigs. It counts as in vivo. Conditions: lowest active dose, female guinea-pigs; for LAD nose: compound 1 hour prior to substance P (2 mg/kg, femoral artery), blue colouring of nose 10 minutes after challenge; for LAD conjunctiva / LAD forepaws / LAD trachea / LAD urinary bladder: compound 1 hour prior to substance P; for LAD conjunctiva: blue colouring of conjunctiva 10 minutes after challenge; for LAD forepaws: blue colouring of forepaws 10 minutes after challenge; for LAD trachea: blue colouring of trachea 30 minutes after challenge; for LAD urinary bladder: blue colouring of urinary bladder 30 minutes after challenge. An excerpt: (§1) The compounds of the present invention are potent inhibitors of neurokinin-mediated effects, in particular those mediated via the NK1 receptor, and may therefore be described as tachykinin antagonists, especially as substance P antagonists, as indicated in vitro by the antagonism of substance P induced relaxation of pig coronary arteries which is described hereinafter. The binding affinity of the present compounds for the human, guinea-pig and gerbil neurokinin receptors may be determined in vitro in a receptor binding test using ^3H-substance-P as radioligand. The subject compounds also show substance-P antagonistic activity in vivo as may be evidenced by, for instance, the antagonism of substance P-induced plasma extravasation in guinea-pigs, or the antagonism of drug-induced emesis in ferrets (Watson et al., Br. J. Pharmacol. 115, 84-94, 1995).
Antagonism of substance P induced plasma extravasation in guinea-pigs
Plasma extravasation was induced by injection of substance P (2 mg/kg) in the femoral artery of female guinea-pigs. Evans Blue dye (30 mg/kg) was injected simultaneously. The test compound or solvent was administered 1 hour prior to substance P injection. 10 minutes after challenge, the aminals were checked for blue colouring (a direct measure for plasma extravasation) of the nose, the forepaws, and the conjectiva. 30 minutes after challenge, the animals were sacrificed by CO2 gas inhalation and checked for blue colouring of the trachea and the urinary bladder. […]

Assay [2] concerns substance-P induced relaxation of the pig coronary arteries. Description: Antagonism of substance-P induced relaxation of the pig coronary arteries. It counts as cell-based. Particulars: concentration at which 50% of the response to 10^−9 M substance P was inhibited, 30 minutes incubation, prostaglandin F2a precontracted segments.
Source text: as §1
Antagonism of substance-P induced relaxation of the pig coronary arteries
Segments of coronary artieries taken from pigs (killed by injection of an overdose of sodium pentobarbital) were inverted and mounted for recordign of isometric tension in organ baths (volume 20 ml) with the endothelium at the outside. The preparations were bathed in Krebs-Henseleit solution. The solution was kept at 37° C. and gassed with a mixture of O2/CO2 (95/5). After stabilisation of the preparations, prostaglandin F2a (10^−5 M) was administered to induce a contraction. This was repeated until contractivle responses became stable. Then prostaglandin F2a was again administered and substance P(3×10^−10 M and 10^−9 M cumulatively) was added. Substance P induced endothelium dependent relaxations. After washing away the agonists, a known concentratin of a compound of formula (I) was added. After an incubation period of 30 minutes, prostaglandin F2a ([…]) and the same concentrations of sbustance P as described above were again administered in the presence of the compound to be tested. Relaxations caused by substance P were expressed as relaxations under control conditions, and percent inhibition of the response to […] substance P was taken as a measure of the antagonistic activity of the compound to be tested. Table 6 lists the IC50 values (concentration at which 50% of the response to […] substance P was inhibited by the test compound) for the tested compounds.

Where only a bound is given, the exact number is not on record here.

In general, IC50 refers to the concentration that inhibits the measured activity by half. A high value points to lower potency. In assay [1], `Cc1cccc(C)c1NC(=O)CN1CCN(C2CCN(C(=O)c3cc(C(F)(F)F)cc(C(F)(F)F)c3)C(Cc3ccccc3)C2)CC1` (stereo not drawn) [Compound 53] returned an LAD nose of 1.25 mg/kg, an LAD conjunctiva of 1.25 mg/kg, an LAD forepaws of 1.25 mg/kg and an LAD trachea of 2.50 mg/kg. In addition, the LAD urinary bladder in assay [1] was 2.50 mg/kg. In assay [2], this molecule yielded an IC50 of 0.35 nM.

As for `Cc1cccc(C)c1NC(=O)CN1CCN([C@@H]2CCN(C(=O)c3cc(C(F)(F)F)cc(C(F)(F)F)c3)[C@@H](Cc3ccc(Cl)c(Cl)c3)C2)CC1` (racemic) [Compound 139, (±)-trans-4-[1-[3,5-bis(trifluoromethyl)benzoyl]-2-[(3,4-dichlorophenyl)methyl]-4-piperidinyl]-N-(2,6-dimethylphenyl)-1-piperazineacetamide], in assay [1], the LAD nose turned out to be 2.50 mg/kg, the LAD conjunctiva is listed as 2.50 mg/kg, the LAD forepaws amounted to 2.50 mg/kg and the LAD trachea is given as 2.50 mg/kg. Further, the LAD urinary bladder in assay [1] was found to be 2.50 mg/kg. This molecule registered an IC50 in assay [2] (Sus scrofa, 0.5 h) of 0.13 nM.

Take `COc1ccccc1NC(=O)CN1CCN(C2CCN(C(=O)c3cc(C(F)(F)F)cc(C(F)(F)F)c3)C(Cc3ccccc3)C2)CC1` (stereo not drawn) [Compound 38]: in assay [1], the LAD nose is on record as 10.0 mg/kg, the LAD conjunctiva is 10.0 mg/kg, the LAD forepaws was 10.0 mg/kg and the LAD trachea was above 40 mg/kg. Also, in assay [1], the LAD urinary bladder is listed as above 40 mg/kg. For the same molecule, the IC50 in assay [2] came out at 0.86 nM.

In assay [1], `CCOCCn1c(CN2CCN(C3CCN(C(=O)c4cc(C(F)(F)F)cc(C(F)(F)F)c4)C(Cc4ccccc4)C3)CC2)nc2cccnc21` (racemic) [Compound 25] yielded an LAD nose of 2.50 mg/kg, an LAD conjunctiva of 10.0 mg/kg, an LAD forepaws of 2.50 mg/kg and an LAD trachea above 40 mg/kg. Besides, in assay [1], the LAD urinary bladder is listed as above 40 mg/kg. The molecule further showed a concentration for half-maximal inhibition (IC50) in assay [2] of 0.79 nM.

In assay [1], `O=C(CN1CCN(C2CCN(C(=O)c3cc(C(F)(F)F)cc(C(F)(F)F)c3)C(Cc3ccccc3)C2)CC1)Nc1c(Cl)cccc1Cl` (racemic) [Compound 45] had an LAD nose of 0.63 mg/kg, an LAD conjunctiva of 0.63 mg/kg, an LAD forepaws of 0.63 mg/kg and an LAD trachea above 40 mg/kg. The same molecule returned an LAD urinary bladder in assay [1] of 2.50 mg/kg. In addition, the concentration for half-maximal inhibition (IC50) in assay [2] worked out at 0.15 nM.

In assay [1], `Cc1cccc(C)c1NC(=O)CN1CCN([C@@H]2CCN(C(=O)c3cc(C(F)(F)F)cc(C(F)(F)F)c3)[C@@H](Cc3ccccc3)C2)CC1.O=C(O)C[C@H](O)C(=O)O` (relative stereo) [Compound 95, (+)-(B)-trans-4-[1-[3,5-bis(trifluoromethyl)benzoyl]-2-(phenylmethyl)-4-piperidinyl]-N-(2,6-dimethylphenyl)-1-piperazine acetamide. (L)-malic acid (1:1)] gave an LAD nose of 0.31 mg/kg, an LAD conjunctiva of 0.31 mg/kg, an LAD forepaws of 0.31 mg/kg and an LAD trachea of 0.63 mg/kg. Besides, the LAD urinary bladder in assay [1] is reported as 2.50 mg/kg. For the same molecule, in assay [2], the IC50 amounted to 0.1 nM.

`O=C(CN1CCN(C2CCN(C(=O)c3cc(C(F)(F)F)cc(C(F)(F)F)c3)C(Cc3ccccc3)C2)CC1)N1CCCc2ccccc21` (racemic) [Compound 101]: in assay [1], the LAD nose is 10.0 mg/kg, the LAD conjunctiva is given as 10.0 mg/kg, the LAD forepaws was determined as 10.0 mg/kg and the LAD trachea is listed as above 40 mg/kg. This molecule had an LAD urinary bladder in assay [1] above 40 mg/kg. The molecule further registered an IC50 in assay [2] of 0.75 nM.

In assay [1], `Cc1ncc(Cn2c(N3CCCN(C4CCN(C(=O)c5cc(C(F)(F)F)cc(C(F)(F)F)c5)C(Cc5ccccc5)C4)CC3)nc3ccccc32)o1` (stereo not drawn) [Compound 34] registered an LAD nose of 2.50 mg/kg, an LAD conjunctiva of 2.50 mg/kg, an LAD forepaws of 10.0 mg/kg and an LAD trachea of 10.0 mg/kg. This molecule also displayed an LAD urinary bladder in assay [1] of 10.0 mg/kg. In assay [2], the midpoint of inhibition, the IC50, lay at 0.35 nM.

Regarding `Cc1cccc(C)c1NC(=O)CN1CCN(C2CCN(C(=O)c3cc(C(F)(F)F)cc(C(F)(F)F)c3)C(Cc3ccc(F)c(F)c3)C2)CC1` (racemic) [Compound 134], in assay [1], the LAD nose turned out to be 10.0 mg/kg, the LAD conjunctiva amounted to 10.0 mg/kg, the LAD forepaws was 10.0 mg/kg and the LAD trachea is 10.0 mg/kg. Also, the LAD urinary bladder in assay [1] came out at 10.0 mg/kg. Also, in assay [2], the IC50 stood at 0.04 nM.

Take `O=C(CN1CCN(C2CCN(C(=O)c3cc(C(F)(F)F)cc(C(F)(F)F)c3)C(Cc3ccccc3)C2)CC1)NC(c1ccccc1)c1ccccc1` (stereo not drawn) [Compound 33]: in assay [1], the LAD nose worked out at 2.50 mg/kg, the LAD conjunctiva was found to be 2.50 mg/kg, the LAD forepaws is listed as 10.0 mg/kg and the LAD trachea is on record as above 40 mg/kg. The molecule further registered an LAD urinary bladder in assay [1] above 40 mg/kg. In assay [2], this molecule displayed an IC50 of 0.6 nM.

Regarding `O=C(CN1CCN(C2CCN(C(=O)c3cc(C(F)(F)F)cc(C(F)(F)F)c3)C(Cc3ccccc3)C2)CC1)N1Cc2ccccc2C1` (racemic) [Compound 121], the midpoint of inhibition in assay [2], the IC50, lay at 2.77 nM.

In assay [2], `O=C(c1cc(C(F)(F)F)cc(C(F)(F)F)c1)N1CCC(N2CCN(C(c3ccc(F)cc3)c3ccc(F)cc3)CC2)CC1Cc1ccccc1` (stereo not drawn) [Compound 36] returned an IC50 of 2.31 nM.

In turn, `COc1ccccc1NC(=O)CN1CCN(C2CCN(C(=O)c3cc(C(F)(F)F)cc(C(F)(F)F)c3)C(Cc3ccccc3)C2)CC1` (stereo not drawn) [Compound 51] displayed an IC50 in assay [2] of 1.35 nM. This IC50 is about 1.7-fold lower than that of the molecule before.

Molecule `O=C(CN1CCN(C2CCN(C(=O)c3cc(C(F)(F)F)cc(C(F)(F)F)c3)C(Cc3ccccc3)C2)CC1)N1Cc2ccccc2C1` (racemic) [Compound 122] displayed an IC50 in assay [2] of 1.68 nM.

Turning to `Cc1cccc(C)c1NC(=O)C(c1ccccc1)N1CCN(C2CCN(C(=O)c3cc(C(F)(F)F)cc(C(F)(F)F)c3)C(Cc3ccccc3)C2)CC1` (racemic) [Compound 102], the IC50 in assay [2] is 1.85 nM.

For the molecule `O=C(c1cc(C(F)(F)F)cc(C(F)(F)F)c1)N1CCC(N2CCN(c3cccc(C(F)(F)F)c3)CC2)CC1Cc1ccccc1` (racemic) [Compound 120], half-maximal inhibition in assay [2] (IC50) required 0.82 nM. This IC50 lies about 2.3-fold lower than the previous one.

With `O=C(c1cc(C(F)(F)F)cc(C(F)(F)F)c1)N1CCC(N2CCN(CCc3ccccc3)CC2)CC1Cc1ccccc1` (stereo not drawn) [Compound 44], 8.34 nM corresponded to half-maximal inhibition in assay [2] (IC50). This IC50 lies about 10-fold higher than the previous one.

In the case of `O=C(c1cc(C(F)(F)F)cc(C(F)(F)F)c1)N1CCC(N2CCN(C(c3ccccc3)c3ccccc3)CC2)CC1Cc1ccccc1` (stereo not drawn) [Compound 55], the IC50 in assay [2] is 2.8 nM.

The molecule `O=C(CN1CCN(C2CCN(C(=O)c3cc(C(F)(F)F)cc(C(F)(F)F)c3)C(Cc3ccccc3)C2)CC1)C1CCc2ccccc21` (racemic) [Compound 99] registered an IC50 in assay [2] of 1.46 nM. Compared with the last molecule, the IC50 is about 1.9-fold lower.

With `Cc1cc(C)cc(C(=O)NCCN2CCN(C3CCN(C(=O)c4cc(C(F)(F)F)cc(C(F)(F)F)c4)C(Cc4ccccc4)C3)CC2)c1` (racemic) [Compound 115], the half-maximal inhibitory concentration (IC50) in assay [2] amounted to 2.23 nM.

Turning to `O=C(c1cc(C(F)(F)F)cc(C(F)(F)F)c1)N1CCC(N2CCN(CC(O)c3ccccc3)CC2)CC1Cc1ccccc1` (racemic) [Compound 86], it took 2.13 nM to reach half-maximal inhibition in assay [2] (IC50).

The molecule `Cc1cc(C)cc(C(=O)N2CCC(N3CCN(CC(=O)Nc4c(C)cccc4C)CC3)CC2Cc2ccccc2)c1` (stereo not drawn) [Compound 5] gave an IC50 in assay [2] of 4.61 nM.

Regarding `O=C(c1cc(C(F)(F)F)cc(C(F)(F)F)c1)N1CCC(N2CCN(C(c3ccc(F)cc3)c3ccc(F)cc3)CC2)CC1Cc1ccccc1` (stereo not drawn) [Compound 35], in assay [2], the IC50 turned out to be 17 nM. Compared with the last molecule, the IC50 is about 3.7-fold higher.

In turn, `Cc1cccc(C)c1NC(=O)CN1CCN(C2CCN(C(=O)c3cc(C(F)(F)F)cc(C(F)(F)F)c3)C(Cc3ccccc3)C2)CC1` (racemic) [Compound 58] gave an IC50 in assay [2] of 0.24 nM.

In turn, `O=C(CN1CCN(C2CCN(C(=O)c3cc(C(F)(F)F)cc(C(F)(F)F)c3)C(Cc3ccccc3)C2)CC1)Nc1nccn1Cc1ccccc1` (racemic) [Compound 97] gave an IC50 in assay [2] of 1.58 nM.

Values taken from patent publication USRE37886E1, “1-(1,2-Disubstituted piperidinyl)-4-substituted piperazine derivatives” (Janssen Pharmaceuticals, N.V., priority 1995, dated 2002).
